“And” between values parts separate entries of the source, which are not always exact repeats. Identical values can stand only once. Toxic doses and inconclusive results are not listed.
Tested on: CD2F1 mice, L1210 leukemia ip, survival T/C
Assay: NCI In Vivo Anticancer Drug Screen. Data for tumor model L1210 Leukemia (intraperitoneal) in CD2F1 (CDF1) mice
Conditions: higher = longer survival
Procedure, shortened: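 Tumor-bearing mice (transplanted tumor) were split into treated and vehicle control groups, and the measured endpoint of each treated group was divided by that of its vehicle controls.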

[1] = endpoint: mean survival time, dose: 25.0 mg/kg/injection, schedule: Q01DX009 (ip), vehicle: saline with Tween-80
[2] = endpoint: mean survival time, dose: 50.0 mg/kg/injection, schedule: Q01DX009 (ip), vehicle: saline with Tween-80
[3] = endpoint: mean survival time, dose: 100.0 mg/kg/injection, schedule: Q01DX009 (ip), vehicle: saline with Tween-80
[4] = endpoint: mean survival time, dose: 12.5 mg/kg/injection, schedule: Q01DX009 (ip), vehicle: saline with Tween-80
[5] = endpoint: mean survival time, dose: 50.0 mg/kg/injection, schedule: Q01DX001 (ip), vehicle: saline with Tween-80
[6] = endpoint: mean survival time, dose: 100.0 mg/kg/injection, schedule: Q04DX003 (ip), vehicle: saline with Tween-80
[7] = endpoint: mean survival time, dose: 400.0 mg/kg/injection, schedule: Q04DX003 (ip), vehicle: saline with Tween-80

CCCCCCC(C)NCCOC(=O)c1ccccc1 (stereo not given)
T/C (endpoint: mean survival time, dose: 75.0 mg/kg/injection, schedule: Q01DX001 (ip), vehicle: saline): 103 % of control
T/C (endpoint: mean survival time, dose: 150.0 mg/kg/injection, schedule: Q01DX001 (ip), vehicle: saline): 102 % of control
T/C (endpoint: mean survival time, dose: 300.0 mg/kg/injection, schedule: Q01DX001 (ip), vehicle: saline): 97 % of control

CC(C)(c1ccc(Nc2ccccc2)cc1)c1ccc(Nc2ccccc2)cc1
T/C (endpoint: mean survival time, dose: 100.0 mg/kg/injection, schedule: Q04DX003 (ip), vehicle: Klucel (hydroxypropylcellulose) (HPC)): 96 % of control
T/C (endpoint: mean survival time, dose: 200.0 mg/kg/injection, schedule: Q04DX003 (ip), vehicle: Klucel (hydroxypropylcellulose) (HPC)): 96 % of control
T/C (endpoint: mean survival time, dose: 400.0 mg/kg/injection, schedule: Q04DX003 (ip), vehicle: Klucel (hydroxypropylcellulose) (HPC)): 92 % of control

NC(=O)c1ncc(-c2ccc(Cl)cc2)[nH]c1=O
T/C (endpoint: mean survival time, dose: 100.0 mg/kg/injection, schedule: Q04DX003 (ip), vehicle: saline sonified): 94 % of control
T/C (endpoint: mean survival time, dose: 200.0 mg/kg/injection, schedule: Q04DX003 (ip), vehicle: saline sonified): 93 % of control
T/C (endpoint: mean survival time, dose: 400.0 mg/kg/injection, schedule: Q04DX003 (ip), vehicle: saline sonified): 96 % of control

Cc1cc(NCCCCCCNc2cc(C)nc3cc(N(C)C)ccc23)c2ccc(N(C)C)cc2n1
T/C (endpoint: median survival time, dose: 3.12 mg/kg/injection, schedule: Q01DX009 (ip), vehicle: distilled water + Tween-80 + alcohol): 121 % of control
T/C (endpoint: median survival time, dose: 25.0 mg/kg/injection, schedule: Q01DX009 (ip), vehicle: distilled water + Tween-80 + alcohol): 152 % of control and 158 % of control

CC(=O)NNC(=O)c1ccccc1N=NN(C)C
T/C (endpoint: mean survival time, dose: 18.75 mg/kg/injection, schedule: Q01DX009 (ip), vehicle: Klucel (hydroxypropylcellulose) (HPC)): 94 % of control and 100 % of control
T/C (endpoint: mean survival time, dose: 37.5 mg/kg/injection, schedule: Q01DX009 (ip), vehicle: Klucel (hydroxypropylcellulose) (HPC)): 102 % of control and 111 % of control
T/C (endpoint: mean survival time, dose: 75.0 mg/kg/injection, schedule: Q01DX009 (ip), vehicle: Klucel (hydroxypropylcellulose) (HPC)): 109 % of control
T/C (endpoint: mean survival time, dose: 150.0 mg/kg/injection, schedule: Q01DX009 (ip), vehicle: Klucel (hydroxypropylcellulose) (HPC)): 105 % of control and 111 % of control

CC(=O)NCC(O)(C1CC1)C1CC1
T/C (endpoint: mean survival time, dose: 100.0 mg/kg/injection, schedule: Q04DX002 (ip), vehicle: saline): 102 % of control
T/C (endpoint: mean survival time, dose: 200.0 mg/kg/injection, schedule: Q04DX002 (ip), vehicle: saline): 98 % of control
T/C (endpoint: mean survival time, dose: 400.0 mg/kg/injection, schedule: Q04DX002 (ip), vehicle: saline): 94 % of control

CCOc1ccc(Br)cc1/C=N/NS(=O)(=O)c1ccc(C)cc1
T/C [1]: 111 % of control
T/C [2]: 114 % of control
T/C [3]: 113 % of control

NC(=S)N/N=C/c1ccc(OC(=O)COc2ccccc2Cl)cn1
T/C [4]: 120 % of control
T/C [1]: 122 % of control
T/C [5]: 101 % of control
T/C (endpoint: mean survival time, dose: 50.0 mg/kg/injection, schedule: Q04DX003 (ip), vehicle: saline with Tween-80): 116 % of control and 118 % of control
T/C (endpoint: mean survival time, dose: 100.0 mg/kg/injection, schedule: Q01DX001 (ip), vehicle: saline with Tween-80): 108 % of control
T/C [3]: 159 % of control
T/C (endpoint: mean survival time, dose: 100.0 mg/kg/injection, schedule: Q04DX002 (ip), vehicle: saline with Tween-80): 103 % of control and 106 % of control
T/C [6]: 124 % of control
T/C (endpoint: mean survival time, dose: 200.0 mg/kg/injection, schedule: Q01DX001 (ip), vehicle: saline with Tween-80): 113 % of control
T/C (endpoint: mean survival time, dose: 200.0 mg/kg/injection, schedule: Q01DX009 (ip), vehicle: saline with Tween-80): 155 % of control
T/C (endpoint: mean survival time, dose: 200.0 mg/kg/injection, schedule: Q04DX002 (ip), vehicle: saline with Tween-80): 118 % of control and 107 % of control
T/C [7]: 152 % of control and 163 % of control

O=P(NC12CC3CC(CC(C3)C1)C2)(N1CC1)N1CC1
T/C (endpoint: mean survival time, dose: 4.8 mg/kg/injection, schedule: Q04DX003 (ip), vehicle: Klucel (hydroxypropylcellulose) (HPC)): 120 % of control
T/C (endpoint: mean survival time, dose: 9.6 mg/kg/injection, schedule: Q04DX003 (ip), vehicle: Klucel (hydroxypropylcellulose) (HPC)): 120 % of control
T/C (endpoint: mean survival time, dose: 30.0 mg/kg/injection, schedule: Q04DX003 (ip), vehicle: Klucel (hydroxypropylcellulose) (HPC)): 162 % of control

Cc1ncc2c(=O)[nH]cnc2n1
T/C [6]: 93 % of control
T/C (endpoint: mean survival time, dose: 200.0 mg/kg/injection, schedule: Q04DX003 (ip), vehicle: saline with Tween-80): 91 % of control
T/C [7]: 90 % of control

Cn1cnc([N+](=O)[O-])c1Sc1cn(C2CC(O)C(CO)O2)c(=O)[nH]c1=O (stereo not given)
T/C (endpoint: mean survival time, dose: 12.5 mg/kg/injection, schedule: Q01DX005 (ip), vehicle: water): 102 % of control
T/C (endpoint: mean survival time, dose: 25.0 mg/kg/injection, schedule: Q01DX005 (ip), vehicle: water): 102 % of control
T/C (endpoint: mean survival time, dose: 50.0 mg/kg/injection, schedule: Q01DX005 (ip), vehicle: water): 104 % of control
T/C (endpoint: mean survival time, dose: 100.0 mg/kg/injection, schedule: Q01DX005 (ip), vehicle: water): 98 % of control
T/C (endpoint: mean survival time, dose: 200.0 mg/kg/injection, schedule: Q01DX005 (ip), vehicle: water): 106 % of control

c1cc2c(cc1-c1nnc(-c3ccc4c(c3)OCO4)nn1)OCO2
T/C (endpoint: mean survival time, dose: 12.5 mg/kg/injection, schedule: Q01DX001 (ip), vehicle: saline with Tween-80): 91 % of control
T/C [4]: 94 % of control
T/C (endpoint: mean survival time, dose: 25.0 mg/kg/injection, schedule: Q01DX001 (ip), vehicle: saline with Tween-80): 90 % of control
T/C [1]: 96 % of control
T/C [5]: 95 % of control
T/C [2]: 88 % of control
